Data on two molecules can be found in patent publication US20230255986A1, “PHARMACEUTICAL COMPOSITIONS FOR TREATING INFECTIONS BY A NEUROTROPIC VIRUS” (priority 2020, published 2023).

Structures can show the parent of a compound that is named as a salt.

The conditions of data set [1]: mouse, in vivo, 4 mg/kg, 5 days.
Description: The brain and plasma levels of (TDF) after the administration of the composition to mice at the dose of 4 mg/kg by the oral (n=6) or the nasal route (n=6) over 5 days have been measured and are shown in the Table below:
The conditions of data set [2]: at 20° C.; cited from earlier work.

For `CC(C)OC(=O)OCOP(=O)(CO[C@H](C)Cn1cnc2c(N)ncnc21)OCOC(=O)OC(C)C` [Tenofovir disoproxil fumarate], in data set [1], the “brain concentration, nasal versus oral administration” value was “more than 4 fold”.

`CC(C)OC(=O)[C@H](C)N[P@](=O)(CO[C@H](C)Cn1cnc2c(N)ncnc21)Oc1ccccc1` [Tenofovir alafenamide]: the water solubility entry in data set [2] is listed as “about 4.86 mg/ml”.
